In patent publication US20260048151A1, “HEMICYANINE PUSH-PULL DYES BASED ON CHROMENE ELECTRON DONORS” (UNIVERSITY OF CONNECTICUT, priority 2022, published 2026):

Tests used:
[1] = Voltage sensitivity on voltage-clamped hemispherical lipid bilayer; conditions: for Ex (excitation wavelength of optimal voltage sensitivity) / Voltage Sensitivity ΔF/F per 100 mV: long pass emission filter; for Voltage Sensitivity ΔF/F per 100 mV: magnitude at optimal Ex/Em
From the text: It is known that optimal voltage sensitivity can be obtained by measuring the compounds on a voltage-clamped hemispherical bilayer apparatus. The apparatus can include a patch-clamp amplifier, such as a HEKA EPC-8 patch-clamp amplifier. Measurements can be obtained by stepping the membrane potential between two different potentials for a set time lapse. such as, for example, −110 and −60 mV every 10 ms.
Testing VSDs in a voltage-clamped hemispherical lipid bilayer allows one to determine the sensitivity of the VSDs as a function of excitation wavelength. This system has a Teflon tube filled with KCl and is immersed in a KCl solution in a cuvette. A lipid bubble is blown at the tip of the tube and spontaneously forms a bilayer membrane. The VSD to be tested is introduced on one side of the bilayer, usually in the cuvette. Electrodes in the tube and in the cuvette allow the imposition of a voltage across the membrane and a tungsten lamp coupled to a monochromator allows excitation wavelength dependence of the fluorescence response to voltage steps to be determined. This screening approach has allows for the comparison of the efficacy of newly developed VSDs in a well-controlled, consistent manner and to also determine excitation and emission wavelengths with optimal.
Voltage sensitivities of 2a as a function of voltage is shown in FIG. 3A for excitation at 730 nm and 570 nm. The voltage response is linear over the range of −100 mV to +100 mV; 570 nm is slightly to the blue of the isosbestic point, accounting for the weak but inverted sensitivity at this wavelength. […] This opposite polarity at the blue and red edges underlies the ability to use electrochromic hemicyanine dyes for dual-wavelength ratio imaging. The precise location of the isosbestic point in the excitation wavelength depends on the emission filter used because the emission spectrum is also voltage dependent for hemicyanine dyes.
The magnitude and wavelengths of the optimal voltage sensitivities of all the VSDs on the voltage-clamped hemispherical bilayer are included in the third column of Table 1.

[2] = Absorption and emission spectra, fluorescence quantum efficiency in EtOH, PBS and lipid vesicles (MLV); format: physicochemical; conditions: for Fluorescence quantum efficiency (FQE): in lipid vesicle suspensions; for emission maximum: membrane-bound (MLV)
Method: FIGS. 2A-2C are plots showing absorption and emission spectra of 2a, in comparison with ElectroFluor630, in various solvent environments: MLV, EtOH, and PBS. Multilamellar lipid vesicle suspension (MLV) was prepared by sonicating soybean phosphatidylcholine in PBS buffer (2 mg/mL) to mimic the cell membrane environment. The emission spectra in ethanol and PBS buffer were scaled 10 and 20 times respectively relative to the emission spectra in MLV. Excitation wavelength is 580 nm for emission spectra.
All chemicals were purchased from commercial sources (Sigma Aldrich, Acros, TCI America, Combi-Blocks, and others) and used without further purification. Column chromatography was generally performed on COMBIFLASH NextGen 300 using normal phase silica columns except that for some final dye products amine silica columns were used. Thin layer chromatography (TLC) was carried out on EM 60 F-254 plastic TLC plates. NMR spectra were recorded on Varian 400 MHz, 500 MHz, and 800 MHz instruments at the UConn Heath Structural Biology Facility. All spectra are referenced internally to TMS or residual solvent signals. Electrospray ionization (ESI) high-resolution mass spectra (HRMS) were obtained on a QStar Elite (AB Sciex) at the Department of Chemistry, University of Connecticut. UV/Vis absorption spectra were recorded on a UV-Visible spectrophotometer (Shimadzu, UV-1601PC) and fluorescence emission spectra on a Horiba Fluorolog spectrofluorometer (Horiba, Inc., Edison, NJ). Fluorescence quantum yield for dyes was determined by a relative method using Rhodamine 6G (excited at 480 nm, FQY=0.95 in EtOH) or cresyl violet (excited at 580 nm, FQY=0.54 in MeOH) as the references.
Absorbance and the fluorescence properties of the new VSDs were determined. The absorption and emission spectra for 2a, together with ElectroFluor630, in aqueous buffer (PBS), ethanol, and when intercalated in the membrane of lipid vesicles are shown in FIGS. 2A-C. […] This is particularly advantageous for fluorescence imaging because background fluorescence from unbound dye is negligible. Another characteristic of the hemicyanine VSDs that is preserved by 2a in FIGS. 2A-C is the large Stokes shift between the excitation and emission maxima. 125 nm for the membrane-bound dye. This is also a benefit for fluorescence detection and imaging, as the fluorescence can be readily filtered from scattered exciting light. The broad wavelength window afforded by the spectra is also an important benefit for the design of experiments with multiple fluorescent sensors. For comparative purposes, certain VSDs are shown below.
As expected, the spectra are largely insensitive to alkyl substitution. Table 1 also includes data for ElectroFluor630 (aka Di-4-ANEQ (F) PTEA) for comparison. The absorption maxima of 2a in ethanol (EtOH), aqueous buffer (PBS) and when bound to lipid membranes (multilamellar vesicles, MLV) are red shifted by 77 nm, 63 nm and 63 nm, respectively, relative to ElectroFluor630, which is isostructural to 2a. […] The absorption and emission spectra of 2a, 2b, and 2c are all shifted to the red by 50-65 nm relative to ElectroFluor630.

[3] = Voltage sensitivity on voltage-clamped hemispherical lipid bilayer; conditions: 560 nm excitation
[4] = Optimal excitation wavelengths of existing VSDs; format: physicochemical
[5] = test system: in-vivo pig heart; conditions: translational in-vivo pig model (Lee, et al., 2019); cited from earlier work
[6] = test system: AtT20 cells; assay: Voltage sensitivity in patch clamped tissue culture cells; format: cell-based
From the text: We were motivated by separate requests from a company, Tara Biosystems, and the academic lab of Dr. Jack Rogers (see letters of support), for cardiac applications requiring recording over the course of longer than a full day. This will require dyes with both improved persistence (i.e. long washout times) and photostability (to allow for recording over long periods without appreciable bleaching or phototoxicity). We addressed these requirements via synthesis of a fluorinated chromophore (to improve photostability) with lengthened alkyl chains (to improve the strength of membrane binding and therefore persistence); we are calling it ElectroFluor630p™ (630 for the optimal excitation wavelength and p for persistent). ElectroFluor630p™ is similar to ElectroFluor630™, except that the butyl chains have been replaced with pentyl chains. We characterized this new VSD on both our voltage clamped hemispherical bilayer and on AtT20 cells. […] In addition, we will follow-up on these measurements extending the excitation wavelengths to include 660 nm. This is expected to further increase sensitivity and is an important wavelength for commercialization since the Photoswitch Bolt system, which is being sold for high-throughput cardiac safety screening studies (see letter from Stephen Smith), uses 660 nm laser excitation.
Turning to Preliminary Results for Aim 2. we have already described our characterization of a new VSD in patch clamped tissue culture cells in FIG. 2.

[7] = in MLV (multilamellar lipid vesicles)

Compound	Ex (excitation wavelength of optimal voltage sensitivity) [1]	Voltage Sensitivity ΔF/F per 100 mV [1]	absorption maximum ([2]; in EtOH)	absorption maximum [2, 7]	absorption maximum ([2]; in PBS)	Fluorescence quantum efficiency (FQE) [2]	emission maximum [2]	other results
CCCCN(CCCC)c1ccc2c(c1)OCC(/C=C/c1cc[n+](CCCS(=O)(=O)[O-])cc1F)=C2 [1a]	660 nm	12%	577 nm	540 nm	546 nm	0.31	673 nm	shift to the red of results relative to the FIG. 1 dye [1]: ~30 nm
CCCCCN(CCCCC)c1ccc2c(c1)OCC(/C=C/c1cc[n+](CCCS(=O)(=O)[O-])cc1F)=C2 [1b]	640 nm	8%	580 nm	540 nm	552 nm	0.25	677 nm	–
CCCCCCN(CCCCCC)c1ccc2c(c1)OCC(/C=C/c1cc[n+](CCCS(=O)(=O)[O-])cc1F)=C2 [1c]	630 nm	11%	579 nm	534 nm	515 nm	0.22	675 nm	–
CCCCN(CCCC)c1ccc2c(c1)OCC(/C=C/c1c(F)c[n+](CCC[N+](CC)(CC)CC)c3ccccc13)=C2.[Br-].[Br-] [2a]	730 nm	17%	701 nm	614 nm	633 nm	0.10	739 nm	ΔF/F/100 mV ([1]; 730 nm excitation): −17%; excitation wavelength of voltage sensitivity higher than any previous VSDs ([1]; at 730 nm): ~100 nm; voltage response of fluorescence ([1]; range −100 mV to +100 mV, excitation 730 nm and 570 nm): linear; ΔF/F/100 mV [3]: +3%; red shift of absorption maximum relative to ElectroFluor630 ([2]; bound to lipid membranes (MLV)): 63 nm; red shift of absorption maximum relative to ElectroFluor630 ([2]; in aqueous buffer (PBS)): 63 nm; red shift of absorption maximum relative to ElectroFluor630 ([2]; in ethanol (EtOH)): 77 nm; fluorescence enhancement upon binding to lipid membranes ([2]; lipid membranes vs unbound dye): over 100 fold; fluorescence quantum efficiency despite bathochromic shift ([2]; membrane bound, vs ElectroFluor630): not diminished; Stokes shift between excitation and emission maxima ([2]; membrane-bound dye): 125 nm
CCCCCN(CCCCC)c1ccc2c(c1)OCC(/C=C/c1c(F)c[n+](CCC[N+](CC)(CC)CC)c3ccccc13)=C2.[Br-].[Br-] [2b]	720 nm	10%	700 nm	611 nm	628 nm	0.10	736 nm	–
CCCCN(CCCC)c1ccc2cc(/C=C/c3cc[n+](CCCS(=O)(=O)[O-])cc3)ccc2c1 [Di-4-ANEPPS, reference compound]	550 nm	10%	496 nm	464 nm	447 nm	0.30	617 nm	–
CCCCN(CCCC)c1ccc2cc(/C=C/c3c(F)c[n+](CCC[N+](CC)(CC)CC)c4ccccc34)ccc2c1.[Br-].[Br-] [ElectroFluor630, Di-4-ANEQ (F) PTEA, reference compound]	645 nm	12%	618 nm	547 nm	565 nm	0.10	686 nm	optimal dual excitation, lower wavelength [4]: 470 nm; optimal dual excitation, upper wavelength [4]: 630 nm; phototoxicity [5]: minimal phototoxicity
CCCCCN(CCCCC)c1ccc2cc(/C=C/c3c(F)c[n+](CCC[N+](CC)(CC)CC)c4ccccc34)ccc2c1.[Br-].[Br-] [ElectroFluor630p, Di-5-ANEQ(F)PTEA]	–	–	–	–	–	–	–	ΔF/F/100 mV ([6]; blue-edge excitation): +5.2%; ΔR/R/100 mV (ratio blue/red excitation) ([6]; ratio measurement): 29.3%; ΔF/F/100 mV ([6]; red-edge excitation): −19.4%
CCCCN(CCCC)c1ccc2cc(/C=C/C=C/c3cc[n+](CCC[N+](C)(C)C)c4ccccc34)ccc2c1.[Br-].[Br-] [di-4-ANBDQPQ]	–	–	–	–	–	–	–	optimal excitation [4]: 630 nm
